Source: ChEMBL document CHEMBL1201862, “PubChem BioAssay data set” (2004)
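Cultured in 96-well plates, cells were exposed to test compound for 48 hours across five concentrations. GI50 is the concentration that inhibits growth by half.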 Calls of active or inactive are those of the source. No stated cut-off is given here; in the data, active = GI50 up to about 1.1 µM and inactive = higher.

What was measured:
Assay in all cases: NCI anticancer screen, dose series, 48 h
NCI-H460 = test system: NCI-H460
ACHN = test system: ACHN
SF-539 = test system: SF-539
NCI-H522 = test system: NCI-H522
MCF7 = test system: MCF7
HL-60 = test system: HL-60
CCRF-CEM = test system: CCRF-CEM
COLO 205 = test system: COLO 205
DU-145 = test system: DU-145
KM12 = test system: KM12
SR = test system: SR
NCI-H226 = test system: NCI-H226
BT-549 = test system: BT-549
UACC-62 = test system: UACC-62
RXF 393 = test system: RXF 393
CAKI-1 = test system: CAKI-1
SW-620 = test system: SW-620
HOP-62 = test system: HOP-62
RPMI-8226 = test system: RPMI-8226
LOX IMVI = test system: LOX IMVI

Measured: GI50

Cc1c(-c2ccccc2)c(C#N)c2nnn(-c3ccccc3)c(=O)n12
inactive: NCI-H460 64.6 µM | ACHN 76.4 µM | SF-539 > 100 µM | NCI-H522 44.9 µM | MCF7 80.9 µM | HL-60 84.1 µM | CCRF-CEM 34.8 µM | COLO 205 54.1 µM | DU-145 > 100 µM | KM12 75.7 µM | SR 33.8 µM | NCI-H226 > 100 µM | BT-549 > 100 µM | UACC-62 92.5 µM | RXF 393 81.7 µM | CAKI-1 > 100 µM | SW-620 > 100 µM | HOP-62 44.2 µM | RPMI-8226 > 100 µM | LOX IMVI 48.4 µM

CN(C)Cc1cc(/N=N/c2ccccc2)ccc1O
inactive: NCI-H460 40.5 µM | ACHN 29 µM | SF-539 67.3 µM | NCI-H522 29.6 µM | MCF7 89.1 µM | HL-60 41.5 µM | CCRF-CEM 42.3 µM | COLO 205 53 µM | DU-145 22.7 µM | KM12 34.6 µM | SR 59.2 µM | NCI-H226 95.9 µM | BT-549 30.8 µM | UACC-62 24.5 µM | RXF 393 3.94 µM | CAKI-1 62.4 µM | SW-620 57.7 µM | HOP-62 39.7 µM | RPMI-8226 56 µM | LOX IMVI 26.7 µM

NCCCN1CCN(CC(=O)O)CCN(CCCN)CCN(CC(=O)O)CC1
inactive: NCI-H460 6.75 µM | ACHN > 100 µM | SF-539 68.1 µM | NCI-H522 24.7 µM | MCF7 44.1 µM | HL-60 15.3 µM | CCRF-CEM > 91.6 µM | COLO 205 33.7 µM | DU-145 > 100 µM | KM12 28.3 µM | SR > 26.9 µM | NCI-H226 > 100 µM | BT-549 > 100 µM | UACC-62 > 56.9 µM | RXF 393 > 47.9 µM | CAKI-1 > 100 µM | SW-620 9.91 µM | HOP-62 > 100 µM | RPMI-8226 17.4 µM | LOX IMVI > 100 µM

O=[N+]([O-])c1ccc(/C(=C\c2ccccc2)Cn2ccnc2)cc1
inactive: NCI-H460 32 µM | ACHN 29.8 µM | SF-539 43.4 µM | NCI-H522 20 µM | MCF7 19.9 µM | HL-60 19 µM | CCRF-CEM 28 µM | COLO 205 15 µM | DU-145 60 µM | KM12 33 µM | SR 38.1 µM | NCI-H226 32.4 µM | BT-549 25.6 µM | UACC-62 33.5 µM | RXF 393 31.6 µM | CAKI-1 3.77 µM | SW-620 44.7 µM | HOP-62 54.1 µM | RPMI-8226 28.9 µM | LOX IMVI 17.3 µM
